Reference: US11572369B2, “Bicyclic pyridine compositions and methods of using the same for cancer therapy” (UNIVERSITY OF SOUTH CAROLINA, priority 2019, dated 2023)

Columns and labels:
Assay in all cases: KINOMEscan
Type in all cases: binding
Conditions in all cases: 2000 nM
RIPK5 = target: T1, RIPK5 (Homo sapiens, UniProt Q6XUX3)
T1 construct: DNA label (qPCR read-out); purchased DiscoveRx (KINOMEscan ScanMAX panel)

HUNK = target: T2, HUNK (Homo sapiens, UniProt P57058)
T2 construct: DNA label (qPCR read-out); purchased KINOMEscan (DiscoveRx) ScanMAX panel

PIK3CA(H1047L) = target: T3, PIK3CA(H1047L) (Homo sapiens, UniProt P42336, H1047L)
T3 construct: DNA label; purchased DiscoveRx (KINOMEscan scanMAX panel)

SGK2 = target: T4, SGK2 (Homo sapiens, UniProt Q9HBY8)
T4 construct: purchased KINOMEscan (DiscoveRx)

TRKA = target: T5, TRKA (Homo sapiens, UniProt P04629)
T5 construct: DNA label (qPCR read-out); purchased KINOMEscan (DiscoveRx) ScanMAX panel

PDGFRA = target: T6, PDGFRA (Homo sapiens, UniProt P16234)
T6 construct: DNA label (for qPCR read-out); purchased DiscoveRx (KINOMEscan scanMAX service)

FGFR4 = target: T7, FGFR4 (Homo sapiens, UniProt P22455)
T7 construct: purchased DiscoveRx (KINOMEscan scanMAX panel)

EGFR(G719S) = target: T8, EGFR(G719S) (Homo sapiens, UniProt P00533, G719S)
T8 construct: purchased DiscoveRx (KINOMEscan scanMAX panel)

[1] = target: T9, RSK4(Kin.Dom.1-N-terminal) (Homo sapiens, UniProt Q9UK32)
T9 construct: RSK4(Kin.Dom.1); purchased DiscoveRx (KINOMEscan scanMAX panel)

DCAMKL2 = target: T10, DCAMKL2 (Homo sapiens, UniProt Q8N568)
T10 construct: DNA label (qPCR read-out); purchased KINOMEscan (DiscoveRx) panel

MEK3 = target: T11, MEK3 (Homo sapiens, UniProt P46734)
T11 construct: purchased DiscoveRx (KINOMEscan scanMAX panel, service)

LRRK2 = target: T12, LRRK2 (Homo sapiens, UniProt Q5S007)
T12 construct: purchased KINOMEscan (DiscoveRx) panel service

AAK1 = target: T13, AAK1 (Homo sapiens, UniProt Q2M2I8)
T13 construct: DNA label (qPCR read-out); purchased DiscoverX (KINOMEscan service)

EPHA2 = target: T14, EPHA2 (Homo sapiens, UniProt P29317)
T14 construct: purchased DiscoveRx (KINOMEscan scanMAX panel)

CSNK1G3 = target: T15, CSNK1G3 (Homo sapiens, UniProt Q9Y6M4)
T15 construct: DNA label; purchased DiscoveRx (KINOMEscan scanMAX panel)

EPHA6 = target: T16, EPHA6 (Homo sapiens, UniProt Q9UF33)
T16 construct: purchased DiscoveRx (KINOMEscan scanMAX panel)

DDR1 = target: T17, DDR1 (Homo sapiens, UniProt Q08345)
T17 construct: DNA label (qPCR read-out); purchased KINOMEscan (DiscoveRx) panel

CSNK1D = target: T18, CSNK1D (Homo sapiens, UniProt P48730)
T18 construct: DNA label (qPCR read-out); purchased DiscoverX (assay service)

PRKX = target: T19, PRKX (Homo sapiens, UniProt P51817)
T19 construct: purchased DiscoveRx (KINOMEscan scanMAX panel)

CDK3 = target: T20, CDK3 (Homo sapiens, UniProt Q00526)
T20 construct: purchased DiscoverX (KINOMEscan service)

PIK3CA(E542K) = target: T21, PIK3CA(E542K) (Homo sapiens, UniProt P42336, E542K)
T21 construct: DNA label; purchased DiscoveRx (KINOMEscan scanMAX panel)

IRAK4 = target: T22, IRAK4 (Homo sapiens, UniProt Q9NWZ3)
T22 construct: DNA label (qPCR read-out); purchased KINOMEscan (DiscoveRx) ScanMAX panel

PDGFRB = target: T23, PDGFRB (Homo sapiens, UniProt P09619)
T23 construct: DNA label (for qPCR read-out); purchased DiscoveRx (KINOMEscan scanMAX service)

RET(V804L) = target: T24, RET(V804L) (Homo sapiens, UniProt P07949, V804L)
T24 construct: purchased DiscoveRx (KINOMEscan scanMAX panel)

DMPK = target: T25, DMPK (Homo sapiens, UniProt Q09013)
T25 construct: DNA label (qPCR read-out); purchased KINOMEscan (DiscoveRx) panel

[2] = target: T26, RPS6KA5(Kin.Dom.1-N-terminal) (Homo sapiens, UniProt O75582)
T26 construct: Kin.Dom.1; DNA label (qPCR read-out); purchased DiscoveRx (KINOMEscan ScanMAX panel)

STK35 = target: T27, STK35 (Homo sapiens, UniProt Q8TDR2)
T27 construct: DNA label (for qPCR read-out); purchased DiscoveRx (KINOMEscan scanMAX panel, contract assay)

GRK2 = target: T28, GRK2 (Homo sapiens, UniProt P25098)
T28 construct: DNA label (for qPCR read-out); purchased DiscoveRx (KINOMEscan scanMAX panel, contract assay)

MARK4 = target: T29, MARK4 (Homo sapiens, UniProt Q96L34)
T29 construct: purchased DiscoveRx (KINOMEscan scanMAX panel, service)

EGFR(L858R,T790M) = target: T30, EGFR(L858R,T790M) (Homo sapiens, UniProt P00533, L858R/T790M)
T30 construct: purchased DiscoveRx (KINOMEscan scanMAX panel)

PCTK1 = target: T31, PCTK1 (Homo sapiens, UniProt Q00536)
T31 construct: purchased DiscoverX (KINOMEscan service)

SRPK1 = target: T32, SRPK1 (Homo sapiens, UniProt Q96SB4)
T32 construct: purchased KINOMEscan (DiscoveRx)

p38-alpha = target: T33, p38-alpha (Homo sapiens, UniProt Q16539)
T33 construct: purchased DiscoverX (KINOMEscan service)

ALK(L1196M) = target: T34, ALK(L1196M) (Homo sapiens, UniProt Q9UM73, L1196M)
T34 construct: DNA label (qPCR read-out); purchased KINOMEscan scanMAX panel (DiscoveRx)

DLK = target: T35, DLK (Homo sapiens, UniProt Q12852)
T35 construct: DNA label (qPCR read-out); purchased KINOMEscan (DiscoveRx) panel

T13 sequence (Q2M2I8 whole entry): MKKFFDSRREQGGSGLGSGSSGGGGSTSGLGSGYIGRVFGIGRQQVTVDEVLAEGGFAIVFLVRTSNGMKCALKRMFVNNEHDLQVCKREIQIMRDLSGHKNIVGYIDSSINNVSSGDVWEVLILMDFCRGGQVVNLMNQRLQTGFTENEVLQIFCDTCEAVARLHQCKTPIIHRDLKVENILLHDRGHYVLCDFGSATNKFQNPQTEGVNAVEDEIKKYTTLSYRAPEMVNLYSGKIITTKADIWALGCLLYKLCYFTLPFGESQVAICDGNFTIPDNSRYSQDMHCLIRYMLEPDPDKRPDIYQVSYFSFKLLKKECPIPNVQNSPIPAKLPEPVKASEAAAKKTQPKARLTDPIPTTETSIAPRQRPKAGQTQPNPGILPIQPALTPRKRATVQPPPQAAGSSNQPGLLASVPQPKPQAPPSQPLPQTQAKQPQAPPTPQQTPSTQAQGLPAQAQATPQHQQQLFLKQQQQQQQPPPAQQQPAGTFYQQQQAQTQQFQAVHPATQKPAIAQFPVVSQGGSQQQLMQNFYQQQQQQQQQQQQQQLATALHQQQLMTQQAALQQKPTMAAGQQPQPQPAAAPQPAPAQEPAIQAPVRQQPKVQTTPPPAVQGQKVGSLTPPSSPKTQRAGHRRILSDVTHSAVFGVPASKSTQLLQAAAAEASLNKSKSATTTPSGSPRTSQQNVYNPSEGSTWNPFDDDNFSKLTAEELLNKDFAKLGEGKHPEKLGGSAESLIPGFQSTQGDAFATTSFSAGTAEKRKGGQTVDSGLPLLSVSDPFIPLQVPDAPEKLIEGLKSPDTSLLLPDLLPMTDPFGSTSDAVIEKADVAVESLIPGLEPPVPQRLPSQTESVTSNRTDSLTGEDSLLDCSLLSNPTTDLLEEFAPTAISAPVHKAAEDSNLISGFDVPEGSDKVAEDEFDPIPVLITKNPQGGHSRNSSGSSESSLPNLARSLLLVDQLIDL
T28 sequence (P25098 whole entry): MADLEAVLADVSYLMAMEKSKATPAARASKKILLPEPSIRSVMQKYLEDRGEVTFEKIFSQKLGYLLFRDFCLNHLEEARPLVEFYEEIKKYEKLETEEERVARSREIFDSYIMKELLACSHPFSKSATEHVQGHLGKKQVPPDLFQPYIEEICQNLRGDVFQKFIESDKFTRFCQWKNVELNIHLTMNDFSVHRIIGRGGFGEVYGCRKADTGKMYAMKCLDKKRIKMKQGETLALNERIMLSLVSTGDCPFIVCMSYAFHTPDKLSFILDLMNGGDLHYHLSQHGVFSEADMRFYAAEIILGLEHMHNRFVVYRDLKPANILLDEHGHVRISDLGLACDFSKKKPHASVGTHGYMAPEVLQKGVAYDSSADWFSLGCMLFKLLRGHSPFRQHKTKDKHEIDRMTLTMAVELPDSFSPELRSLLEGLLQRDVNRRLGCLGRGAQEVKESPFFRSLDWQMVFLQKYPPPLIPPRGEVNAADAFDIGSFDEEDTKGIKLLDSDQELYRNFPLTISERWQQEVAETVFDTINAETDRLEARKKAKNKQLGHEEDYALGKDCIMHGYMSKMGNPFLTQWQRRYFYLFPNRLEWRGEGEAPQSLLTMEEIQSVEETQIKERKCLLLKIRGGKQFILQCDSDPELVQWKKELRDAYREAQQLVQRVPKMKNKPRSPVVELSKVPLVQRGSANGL
T6 sequence (P16234 24-1089): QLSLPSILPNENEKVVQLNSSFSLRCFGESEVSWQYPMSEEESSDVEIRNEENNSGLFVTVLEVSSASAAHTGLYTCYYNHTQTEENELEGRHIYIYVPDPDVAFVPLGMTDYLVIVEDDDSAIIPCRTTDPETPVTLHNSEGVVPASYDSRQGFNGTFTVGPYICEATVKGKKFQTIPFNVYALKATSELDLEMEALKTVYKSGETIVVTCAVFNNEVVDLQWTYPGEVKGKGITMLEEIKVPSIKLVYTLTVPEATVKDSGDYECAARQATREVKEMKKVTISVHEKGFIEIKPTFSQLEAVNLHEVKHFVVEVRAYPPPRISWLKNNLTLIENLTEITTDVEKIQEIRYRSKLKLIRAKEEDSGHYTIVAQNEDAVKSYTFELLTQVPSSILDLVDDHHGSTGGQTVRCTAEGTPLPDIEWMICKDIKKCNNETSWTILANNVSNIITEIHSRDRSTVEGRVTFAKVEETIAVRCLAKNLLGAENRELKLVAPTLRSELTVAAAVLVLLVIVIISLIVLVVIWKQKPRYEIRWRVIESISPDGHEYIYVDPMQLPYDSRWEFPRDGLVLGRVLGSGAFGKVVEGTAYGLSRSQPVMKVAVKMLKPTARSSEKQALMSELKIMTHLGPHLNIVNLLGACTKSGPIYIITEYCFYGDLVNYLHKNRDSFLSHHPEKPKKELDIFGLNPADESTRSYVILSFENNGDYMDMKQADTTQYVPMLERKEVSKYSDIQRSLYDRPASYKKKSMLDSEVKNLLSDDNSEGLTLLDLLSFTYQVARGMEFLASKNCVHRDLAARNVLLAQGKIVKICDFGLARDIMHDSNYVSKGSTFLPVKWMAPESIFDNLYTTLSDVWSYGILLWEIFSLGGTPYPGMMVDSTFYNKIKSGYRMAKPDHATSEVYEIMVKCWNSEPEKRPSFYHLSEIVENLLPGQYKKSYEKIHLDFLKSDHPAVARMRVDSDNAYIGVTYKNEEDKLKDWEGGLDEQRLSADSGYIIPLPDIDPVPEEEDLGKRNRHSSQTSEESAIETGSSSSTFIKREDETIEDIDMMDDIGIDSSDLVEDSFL
T26 sequence (O75582 49-318 limits assumed): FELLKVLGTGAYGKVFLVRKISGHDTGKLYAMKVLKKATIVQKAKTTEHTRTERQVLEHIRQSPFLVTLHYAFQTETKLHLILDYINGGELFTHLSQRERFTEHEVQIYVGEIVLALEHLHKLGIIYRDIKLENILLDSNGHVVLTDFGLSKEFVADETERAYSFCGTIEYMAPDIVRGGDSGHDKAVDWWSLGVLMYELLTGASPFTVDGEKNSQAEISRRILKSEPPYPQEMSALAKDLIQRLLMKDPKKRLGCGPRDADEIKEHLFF
T3 sequence (P42336 whole entry H1047L): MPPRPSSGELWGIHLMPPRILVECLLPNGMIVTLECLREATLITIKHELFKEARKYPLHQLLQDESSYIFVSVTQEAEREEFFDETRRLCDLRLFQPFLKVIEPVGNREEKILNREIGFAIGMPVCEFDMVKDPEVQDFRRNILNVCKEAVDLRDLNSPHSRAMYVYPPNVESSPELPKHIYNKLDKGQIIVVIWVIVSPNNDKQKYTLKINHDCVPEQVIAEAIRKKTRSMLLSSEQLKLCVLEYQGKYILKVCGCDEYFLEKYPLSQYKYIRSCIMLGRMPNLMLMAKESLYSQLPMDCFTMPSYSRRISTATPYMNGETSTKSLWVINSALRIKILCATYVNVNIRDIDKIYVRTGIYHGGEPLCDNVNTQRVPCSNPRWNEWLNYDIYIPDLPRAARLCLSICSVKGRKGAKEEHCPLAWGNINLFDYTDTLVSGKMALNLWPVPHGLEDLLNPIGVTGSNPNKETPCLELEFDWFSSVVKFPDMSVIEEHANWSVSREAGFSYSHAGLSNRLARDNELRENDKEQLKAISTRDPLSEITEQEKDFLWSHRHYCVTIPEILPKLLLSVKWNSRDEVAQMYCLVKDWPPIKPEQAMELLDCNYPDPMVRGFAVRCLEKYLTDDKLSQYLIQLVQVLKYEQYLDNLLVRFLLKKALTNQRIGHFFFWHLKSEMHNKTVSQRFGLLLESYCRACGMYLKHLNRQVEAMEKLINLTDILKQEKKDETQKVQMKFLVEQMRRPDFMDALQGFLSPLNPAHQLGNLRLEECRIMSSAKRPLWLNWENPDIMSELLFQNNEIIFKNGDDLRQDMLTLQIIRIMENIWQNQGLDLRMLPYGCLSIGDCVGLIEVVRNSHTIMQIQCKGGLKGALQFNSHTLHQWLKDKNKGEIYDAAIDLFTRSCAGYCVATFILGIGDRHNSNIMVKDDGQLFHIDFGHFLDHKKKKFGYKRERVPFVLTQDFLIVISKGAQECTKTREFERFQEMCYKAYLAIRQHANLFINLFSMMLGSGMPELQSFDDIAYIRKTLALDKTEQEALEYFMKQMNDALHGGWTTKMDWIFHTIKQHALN
T9 sequence (Q9UK32 73-330 limits assumed): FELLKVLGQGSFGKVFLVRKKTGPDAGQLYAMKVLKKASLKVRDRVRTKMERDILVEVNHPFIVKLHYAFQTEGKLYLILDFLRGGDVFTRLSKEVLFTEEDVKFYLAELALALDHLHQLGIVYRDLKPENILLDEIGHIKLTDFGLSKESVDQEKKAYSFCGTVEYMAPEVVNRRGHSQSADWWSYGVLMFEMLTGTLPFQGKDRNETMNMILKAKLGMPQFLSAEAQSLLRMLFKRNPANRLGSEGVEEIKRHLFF
T32 sequence (Q96SB4 whole entry): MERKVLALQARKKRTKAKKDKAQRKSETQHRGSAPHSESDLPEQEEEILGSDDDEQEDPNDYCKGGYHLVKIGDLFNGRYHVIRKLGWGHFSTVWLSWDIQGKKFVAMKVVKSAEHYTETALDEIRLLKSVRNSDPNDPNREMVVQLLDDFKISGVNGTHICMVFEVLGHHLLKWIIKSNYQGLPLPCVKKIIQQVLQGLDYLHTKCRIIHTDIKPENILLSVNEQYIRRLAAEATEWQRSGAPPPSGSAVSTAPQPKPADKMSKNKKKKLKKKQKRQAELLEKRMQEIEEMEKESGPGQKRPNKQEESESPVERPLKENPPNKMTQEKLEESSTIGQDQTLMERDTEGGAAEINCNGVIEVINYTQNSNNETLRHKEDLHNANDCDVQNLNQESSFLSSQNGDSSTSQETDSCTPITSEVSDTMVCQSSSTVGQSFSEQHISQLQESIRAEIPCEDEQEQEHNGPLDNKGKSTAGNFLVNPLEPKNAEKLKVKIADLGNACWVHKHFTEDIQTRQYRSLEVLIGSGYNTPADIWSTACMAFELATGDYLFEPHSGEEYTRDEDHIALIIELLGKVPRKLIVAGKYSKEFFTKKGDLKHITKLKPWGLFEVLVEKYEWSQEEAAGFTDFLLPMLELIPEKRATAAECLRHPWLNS
T21 sequence (P42336 whole entry E542K): as the sequence (P42336 whole entry H1047L) above, with E542K, L1047H counted along it

Row | Compound | % Ctrl (RIPK5) [% Ctrl] | % Ctrl (HUNK) [% Ctrl] | % Ctrl (PIK3CA(H1047L)) [% Ctrl] | % Ctrl (SGK2) [% Ctrl] | % Ctrl (TRKA) [% Ctrl] | % Ctrl (PDGFRA) [% Ctrl] | % Ctrl (FGFR4) [% Ctrl] | % Ctrl (EGFR(G719S)) [% Ctrl] | % Ctrl [1] [% Ctrl] | % Ctrl (DCAMKL2) [% Ctrl] | % Ctrl (MEK3) [% Ctrl] | % Ctrl (LRRK2) [% Ctrl] | % Ctrl (AAK1) [% Ctrl] | % Ctrl (EPHA2) [% Ctrl] | % Ctrl (CSNK1G3) [% Ctrl] | % Ctrl (EPHA6) [% Ctrl] | % Ctrl (DDR1) [% Ctrl] | % Ctrl (CSNK1D) [% Ctrl] | % Ctrl (PRKX) [% Ctrl] | % Ctrl (CDK3) [% Ctrl] | other results
1 | CN(C)C(=O)c1ccc(N2CCCN(c3ccnc4sc(C(N)=O)c(N)c34)CC2)cc1 [15u, 3-amino-4-(4-(4-(dimethylcarbamoyl)phenyl)-1,4-diazepan-1-yl)thieno[2,3-b]pyridine-2-carboxamide] | 100 | 99 | 94 | 100 | 93 | 70 | 100 | 100 | 78 | 100 | 68 | 94 | 94 | 95 | 95 | 100 | 82 | 20 | 94 | 92 | % Ctrl (PIK3CA(E542K)): 92 % Ctrl; % Ctrl (IRAK4): 89 % Ctrl; % Ctrl (PDGFRB): 100 % Ctrl; % Ctrl (RET(V804L)): 100 % Ctrl; % Ctrl (DMPK): 97 % Ctrl; % Ctrl [2]: 75 % Ctrl; % Ctrl (STK35): 87 % Ctrl; % Ctrl (GRK2): 88 % Ctrl; % Ctrl (MARK4): 100 % Ctrl; % Ctrl (EGFR(L858R,T790M)): 100 % Ctrl; % Ctrl (PCTK1): 92 % Ctrl; % Ctrl (SRPK1): 100 % Ctrl; % Ctrl (p38-alpha): 93 % Ctrl; % Ctrl (ALK(L1196M)): 96 % Ctrl; % Ctrl (DLK): 93 % Ctrl
2 | [2H]C([2H])([2H])N(C(=O)c1ccc(N2CCCN(c3ccnc4sc(C(N)=O)c(N)c34)CC2)cc1)C([2H])([2H])[2H] [15u_D6, 3-amino-4-(4-(4-(bis(methyl-d3)carbamoyl)phenyl)-1,4-diazepan-1-yl)thieno[2,3-b]pyridine-2-carboxamide] | 72 | 100 | 80 | 81 | 78 | 65 | 96 | 100 | 80 | 100 | 47 | 70 | 90 | 100 | 80 | 100 | 90 | 22 | 95 | 97 | % Ctrl (PIK3CA(E542K)): 74 % Ctrl; % Ctrl (IRAK4): 78 % Ctrl; % Ctrl (PDGFRB): 93 % Ctrl; % Ctrl (RET(V804L)): 100 % Ctrl; % Ctrl (DMPK): 97 % Ctrl; % Ctrl [2]: 100 % Ctrl; % Ctrl (STK35): 93 % Ctrl; % Ctrl (GRK2): 70 % Ctrl; % Ctrl (MARK4): 98 % Ctrl; % Ctrl (EGFR(L858R,T790M)): 87 % Ctrl; % Ctrl (PCTK1): 64 % Ctrl; % Ctrl (SRPK1): 97 % Ctrl; % Ctrl (p38-alpha): 99 % Ctrl; % Ctrl (ALK(L1196M)): 92 % Ctrl; % Ctrl (DLK): 89 % Ctrl
